Molecules are shown by their SMILES. Counter-ions that a name gives are not always drawn.

In assay [1] the test system is platelet aggregation caused by ADP in platelet-rich plasma (PRP). In words: Test Example 1: in vitro platelet aggregation inhibitory effect. In kind it is cell-based, rat (male Sprague-Dawley). The settings on record: 10 μg/ml test compound; rat PRP; ADP final concentration 10 μM; maximum platelet aggregation ratio. Here is the method: Male Sprague-Dawley rats (8-week old, Japan SLC, Inc.), 3 to 4 animals per group, were used for the test. The platelet aggregation was measured with an automatic platelet aggregometer (MCM Hema Tracer 313M, MC Medical, Inc.) by a partially modified method of Born et al., The Journal of Physiology, Vol. 168, Section 178 (1963). 6.3 ml of blood was sampled from the ventral aorta of a rat anesthetized with pentobarbital (40 mg/kg) using 3.8% (w/v) sodium citrate solution (0.7 ml) as an anticoagulant. The obtained blood containing citrate was centrifuged (230 g, 15 minutes, room temperature) to separate a platelet-rich plasma (hereinbelow abbreviated as PRP). The blood after the separation of PRP was further centrifuged (2,000 g, 10 minutes, room temperature) to separate a platelet-poor plasma (hereinbelow abbreviated as PPP). After the number of blood platelet in PRP was measured with a multi-item automatic blood corpuscle counter (KX-21N, Sysmex Corporation), PPP was added thereto to adjust the blood platelet count to 5×10^8/ml. After PRP (239 μl) was pipetted into cuvettes, test compounds (1 μl) dissolved in dimethylsulfoxide (DMSO) were added to PRP and the cuvettes were set in the automatic platelet aggregometer. DMSO (1 μl) was added in place of the test compounds for the control group. After preliminary warming (37° C.) for 1.5 minutes, 10 μl of adenosine 5′-diphosphate (ADP) solution (final concentration at 10 μM) was added to cause platelet aggregation. Platelet aggregation was measured for 5 minutes and the maximum platelet aggregation ratio was determined.

In assay [2] the test system is platelet aggregation caused by ADP in platelet-rich plasma (PRP) after oral administration. In words: Test Example 2: ex vivo platelet aggregation inhibitory effect. The note with it: 4 hours before blood sampling, rat PRP, ADP final concentration 3 μM, maximum platelet aggregation ratio; for inhibition at 10 mg/kg: 10 mg/kg orally, read-out: Test Example 1 (% inhibition) 10 mg/kg. Type of assay: in vivo, rat (male Sprague-Dawley). Here is the method:
Male Sprague-Dawley rats (8-week old, Japan SLC, Inc.), 3 to 4 animals per group, were used for the test. The platelet aggregation was measured with an automatic platelet aggregometer (MCM Hema Tracer 313M, MC Medical, Inc.) by a partially modified method of Bom et al., The Journal of Physiology, Vol. 168, Section 178 (1963). Test compounds suspended in 5% Arabian gum solution or 10% dimethylacetamide/64% polyethylene glycol 400/16% Tween 80 solution were orally administered in a dose ratio of 1 mL/kg 4 hours before blood sampling. Vehicle was orally administered 4 hours in a dose ratio of 1 mL/kg before the sampling of the blood for the control group. 6.3 ml of blood was sampled from the ventral aorta of a rat anesthetized with pentobarbital (40 mg/kg) using 3.8% (w/v) sodium citrate solution (0.7 ml) as an anticoagulant. The obtained blood containing citrate was centrifuged (230 g, 15 minutes, room temperature) to separate PRP. The blood after the separation of PRP was further centrifuged (2,000 g, 10 minutes, room temperature) to separate PPP. After the number of blood platelet in PRP was measured with a multi-item automatic blood corpuscle counter (KX-21N, Sysmex Corporation), PPP was added thereto to adjust the blood platelet to 5×10^8/ml. After PRP (240 μl) was pipetted into cuvettes, the cuvettes were set in the automatic platelet aggregometer. After preliminary warming (37° C.) for 1.5 minutes, 10 μl of ADP solution (final concentration 3 μM) was added to cause platelet aggregation. Platelet aggregation was measured for 5 minutes and the maximum platelet aggregation ratio was determined.

On to `O=C(O)CN1CCN(C/C=C2\CN(C(C(=O)C3CC3)c3ccccc3F)CCC2S)CC1=O` (centres unmarked) [Example 15, (E)-3-{2-[4-(Carboxymethyl)-3-oxopiperazin-1-yl]ethylidene}-1-[2-cyclopropyl-1-(2-fluorophenyl)-2-oxoethyl]-4-sulfanylpiperidine dihydrochloride], for which, in assay [1], the inhibition at 10 µg/mL came out at 90%. `COC(=O)CCN1CCN(C/C=C2\CN(C(C(=O)C3CC3)c3ccccc3F)CCC2S)CC1=O` (centres unmarked) [Example 18, (E)-1-[2-Cyclopropyl-1-(2-fluorophenyl)-2-oxoethyl]-3-(2-{4-[2-(methoxycarbonyl)ethyl]-3-oxopiperazin-1-yl}ethylidene)-4-sulfanylpiperidine dihydrochloride]: the inhibition at 10 µg/mL in assay [1] came to 73%. Further, in assay [2], the inhibition at 10 mg/kg turned out to be 74%. As for `O=C(O)CCN1CCN(C/C=C2\CN(C(C(=O)C3CC3)c3ccccc3F)CCC2S)CC1=O` (centres unmarked) [Example 19, (E)-3-(2-{4-[2-(Carboxyethyl)]-3-oxopiperazin-1-yl}ethylidene)-1-[2-cyclopropyl-1-(2-fluorophenyl)-2-oxoethyl]-4-sulfanylpiperidine dihydrochloride], the inhibition at 10 µg/mL in assay [1] stood at 77%. For the same compound, in assay [2], the inhibition at 10 mg/kg was determined as 60%. The corresponding values for `CCOC(=O)CCN1CCN(C/C=C2\CN(C(C(=O)C3CC3)c3ccccc3F)CCC2S)C(=O)C1` (centres unmarked) [Example 22, (E)-1-[2-Cyclopropyl-1-(2-fluorophenyl)-2-oxoethyl]-3-(2-{4-[2-(ethoxycarbonyl)ethyl]-2-oxopiperazin-1-yl}ethylidene)-4-sulfanylpiperidine dihydrochloride] are 67% and 79%. The corresponding values for `O=C(O)CCN1CCN(C/C=C2\CN(C(C(=O)C3CC3)c3ccccc3F)CCC2S)C(=O)C1` (centres unmarked) [Example 23, (E)-3-(2-{4-[2-(Carboxyethyl)]-2-oxopiperazin-1-yl}ethylidene)-1-[2-cyclopropyl-1-(2-fluorophenyl)-2-oxoethyl]-4-sulfanylpiperidine dihydrochloride] are 77% and 72%.

Consider `O=C(O)c1cnn(C/C=C2\CN(C(C(=O)C3CC3)c3ccccc3F)CCC2S)c1` (centres unmarked) [Example 44, (E)-3-[2-(4-Carboxy-1H-pyrazol-1-yl)ethylidene]-1-[2-cyclopropyl-1-(2-fluorophenyl)-2-oxoethyl]-4-sulfanylpiperidine hydrochloride], for which, in assay [1], the inhibition at 10 µg/mL amounted to 81%. Also, the inhibition at 3 mg/kg in assay [2] (3 mg/kg orally, read-out: Test Example 1 (% inhibition) 3 mg/kg) came to 61%. With `CCOC(=O)c1cn(C/C=C2\CN(C(C(=O)C3CC3)c3ccccc3F)CCC2S)nn1` (centres unmarked) [Example 50, (E)-1-[2-Cyclopropyl-1-(2-fluorophenyl)-2-oxoethyl]-3-[2-(4-ethoxycarbonyl-1H-1,2,3-triazol-1-yl)ethylidene]-4-sulfanylpiperidine hydrochloride], in assay [1], the inhibition at 10 µg/mL worked out at 79%. As for `O=C(O)c1cn(C/C=C2\CN(C(C(=O)C3CC3)c3ccccc3F)CCC2S)nn1` (centres unmarked) [Example 51, (E)-3-[2-(4-Carboxy-1H-1,2,3-triazol-1-yl)ethylidene]-1-[2-cyclopropyl-1-(2-fluorophenyl)-2-oxoethyl]-4-sulfanylpiperidine hydrochloride], the inhibition at 10 µg/mL in assay [1] worked out at 81%.

`O=C(O)Cc1cnn(C/C=C2\CN(C(C(=O)C3CC3)c3ccccc3F)CCC2S)c1` (centres unmarked) [Example 74, (E)-3-{2-[4-(Carboxymethyl)-1H-pyrazol-1-yl]ethylidene}-1-[2-cyclopropyl-1-(2-fluorophenyl)-2-oxoethyl]-4-sulfanylpiperidine hydrochloride]: the inhibition at 10 µg/mL in assay [1] amounted to 80%. In addition, the inhibition at 10 mg/kg in assay [2] amounted to 100%.

With `CN(C/C=C1\CN(C(C(=O)C2CC2)c2ccccc2F)CCC1S)CC(=O)O` (centres unmarked) [Example 83, (E)-3-{2-[N-(Carboxymethyl)-N-methylamino]ethylidene}-1-[2-cyclopropyl-1-(2-fluorophenyl)-2-oxoethyl]-4-sulfanylpiperidine dihydrochloride], in assay [1], the inhibition at 10 µg/mL turned out to be 68%.

Take `CN(C/C=C1/CN(C(C(=O)C2CC2)c2ccccc2F)CCC1S)CC(=O)O` (centres unmarked) [Example 86, (Z)-3-{2-[N-(Carboxymethyl)-N-methylamino]ethylidene}-1-[2-cyclopropyl-1-(2-fluorophenyl)-2-oxoethyl]-4-sulfanylpiperidine dihydrochloride]: the inhibition at 10 µg/mL in assay [1] was 82%.

Turning to `CN(C/C=C1/CN(C(C(=O)C2CC2)c2ccccc2F)CCC1S)CCCC(=O)O` (centres unmarked) [Example 91, (Z)-3-(2-{N-[3-(Carboxy)propyl]-N-methylamino}ethylidene)-1-[2-cyclopropyl-1-(2-fluorophenyl)-2-oxoethyl]-4-sulfanylpiperidine dihydrochloride], the inhibition at 10 µg/mL in assay [1] was found to be 74%.

Regarding `O=C(O)c1cnn(C/C=C2/CN(C(C(=O)C3CC3)c3ccccc3F)CCC2S)c1` (centres unmarked) [Example 111, (Z)-3-[2-(4-Carboxy-1H-pyrazol-1-yl)ethylidene]-1-[2-cyclopropyl-1-(2-fluorophenyl)-2-oxoethyl]-4-sulfanylpiperidine hydrochloride], the inhibition at 10 µg/mL in assay [1] turned out to be 82%. Further, the inhibition at 10 mg/kg in assay [2] is 82%.

These data come from patent US20090306059A1, “CYCLIC AMINE DERIVATIVE HAVING SUBSTITUTED ALKYL GROUP” (priority 2005, published 2009).
